The record followed here is patent publication US8324390B2, “Tetrazole-substituted anthranilamides as pesticides” (Bayer CropScience AG, priority 2008, dated 2012).

Series [1] relates to larvae of the mustard beetle (Phaedon cochleariae). Nature of the series: Phaedon test (PHAECO spray treatment). Particulars: Phaedon cochleariae, in Brassica rapa, foliar, read-out: effect in % (beetle larvae killed).
The nature of series [2]: log P determination by HPLC (EEC Directive 79/831 Annex V.A8). Format: physicochemical. The procedure: The measurements were carried out using an Agilent 1100 LC system with a 50*4.6 Zorbax Eclipse C18 1.8 μm column (oven temperature 55° C., flow rate 2.0 ml/min).
The following mobile phases were used:
Mobile phase A: acetonitrile+1000 μl of formic acid/l
Mobile phase B: Millipore water+900 μl of formic acid/l

For series [3], the system named is caterpillars of the armyworm (Spodoptera frugiperda). Nature of the series: Spodoptera frugiperda test (SPODFR spray treatment). Type of series: in vivo. Particulars: Spodoptera frugiperda, foliar, read-out: effect in % (caterpillars killed). From the text: Solvent: 78.0 parts by weight of acetone
The mark [4] stands for this setting: reversed-phase HPLC, Zorbax Eclipse C18 column, by HPLC according to EEC Directive 79/831 Annex V.A8, read-out: log P.
The mark [5] stands for this setting: application rate 100 g/ha, maize leaf discs.
[6] abbreviates: by HPLC according to EEC Directive 79/831 Annex V.A8, read-out: log P.
The mark [7] stands for this setting: reversed-phase HPLC, Zorbax Eclipse C18 column, determined by HPLC according to EEC Directive 79/831 Annex V.A8, read-out: log P.

Like-named read-outs stand apart in the source and are kept apart here. Bounds are passed on as bounds.

Turning to `CSC[C@H](C)NC(=O)c1cc(C#N)cc(C)c1NC(=O)c1cc(Cn2nnc(C(F)(F)F)n2)nn1-c1ncccc1Cl` [Example 14], the pest or weed control at 100 g/ha in series [1] and in series [3] (in Zea mays) was not below 80% throughout. In series [2] (log P), the chromatographic logP came out at 3.28.
On to `Cc1cc(Cl)cc(C(=O)NC2CCC2)c1NC(=O)c1cc(Cn2nnc(C(F)(F)F)n2)nn1-c1ncccc1Cl` [Example 49], for which the pest or weed control at 100 g/ha in series [1] and in series [3] (in Zea mays) was not below 80% in each case. The molecule further returned a chromatographic logP in series [2] (log P) of 3.6.
As to `CCNC(=O)c1cc(Cl)cc(Cl)c1NC(=O)c1cc(Cn2nnc(C(F)(F)F)n2)nn1-c1ncccc1Cl` [Example 58], the pest or weed control at 100 g/ha in series [1] and in series [3] (in Zea mays) was not below 80% in each case. For the same molecule, in series [2] (log P), the chromatographic logP worked out at 3.17.
On to `Cc1cc(C#N)cc(C(=O)NCC#N)c1NC(=O)c1cc(Cn2nnnc2C(F)(F)F)nn1-c1ncccc1Cl` [Example 208], for which the pest or weed control at 100 g/ha in series [1] and in series [3] (in Zea mays) was not below 80% in each case. In addition, the chromatographic logP in series [2] (log P) is 2.31.
As for `Cc1cc(F)cc(C(=O)NC(C)C)c1NC(=O)c1cc(Cn2nnc(C(F)(F)C(F)(F)F)n2)nn1-c1ncccc1Cl` [Example 149], the pest or weed control at 100 g/ha in series [1] and in series [3] (in Zea mays) was not below 80% throughout. This molecule returned a chromatographic logP in series [2] (log P) of 3.59.
`CSC[C@H](C)NC(=O)c1cc(Cl)cc(C)c1NC(=O)c1cc(Cn2nnc(C(F)(F)C(F)(F)F)n2)nn1-c1ncccc1Cl` [Example 212]: the pest or weed control at 100 g/ha in series [1] and in series [3] (in Zea mays) was not below 80% each time. In series [2] (log P), the chromatographic logP was determined as 4.09.
For the molecule `CSC[C@H](C)NC(=O)c1cc(Cl)cc(C)c1NC(=O)c1cc(Cn2nnc(C(F)F)n2)nn1-c1ncccc1Cl` [Example 302], the pest or weed control at 100 g/ha in series [1] and in series [3] (in Zea mays) was not below 80% each time. In series [2] (log P), this molecule returned a chromatographic logP of 3.18.
For `CCC(C)NC(=O)c1cc(Cl)cc(C)c1NC(=O)c1cc(Cn2nnc(C(F)(F)F)n2)nn1-c1ncccc1Cl` (stereo not drawn) [Example 36], the pest or weed control at 100 g/ha in series [1] and in series [3] (in Zea mays) was not below 80% throughout. This molecule displayed a chromatographic logP in series [2] (log P) of 3.74.
As to `Cc1cc(C#N)cc(C(=O)NCC#N)c1NC(=O)c1cc(Cn2nnc(C(F)(F)F)n2)nn1-c1ncccc1C(F)(F)F` [Example 253], the pest or weed control at 100 g/ha in series [1] and in series [3] (setting [5]) was not below 80% in each case. In addition, in series [2] (setting [4]), the chromatographic logP turned out to be 2.81.
In the case of `Cc1cc(I)cc(C(=O)NC(C)(C)C)c1NC(=O)c1cc(Cn2nnc(C(F)(F)C(F)(F)C(F)(F)F)n2)nn1-c1ncccc1Cl` [Example 121], the pest or weed control at 100 g/ha in series [1] and in series [3] (in Zea mays) was not below 80% in each case. Moreover, the chromatographic logP in series [2] (setting [6]) is 4.86.
Turning to `Cc1cc(C#N)cc(C(=O)NCC(F)(F)F)c1NC(=O)c1cc(Cn2nnc(C(F)(F)F)n2)nn1-c1ccccc1Cl` [Example 537], the pest or weed control at 100 g/ha in series [1] and in series [3] (setting [5]) was not below 80% in each case. The chromatographic logP in series [2] (setting [7]) amounted to 3.48.
As for `Cc1cc(Cl)cc(C(=O)NC(C)(C)C)c1NC(=O)c1cc(Cn2nnc(C(F)(F)C(F)(F)C(F)(F)F)n2)nn1-c1ncccc1Cl` [Example 107], the pest or weed control at 100 g/ha in series [1] and in series [3] (in Zea mays) was not below 80% each time. Also, the chromatographic logP in series [2] (setting [6]) is 4.6.
In the case of `Cc1cc(Cl)cc(C(=O)NC2CC2)c1NC(=O)c1cc(Cn2nnc(C(F)(C(F)(F)F)C(F)(F)F)n2)nn1-c1ncccc1Cl` [Example 365], the pest or weed control at 100 g/ha in series [1] and in series [3] (in Zea mays) was not below 80% throughout. In addition, the chromatographic logP in series [2] (log P) was determined as 3.94.
`Cc1cc(Cl)cc(C(=O)NC2CCC2)c1NC(=O)c1cc(Cn2nnc(C(F)F)n2)nn1-c1ncccc1Cl` [Example 260]: the pest or weed control at 100 g/ha in series [1] and in series [3] (in Zea mays) was not below 80% throughout. This molecule showed a chromatographic logP in series [2] (log P) of 3.09.
Regarding `Cc1cc(Br)cc(C(N)=O)c1NC(=O)c1cc(Cn2nnc(C(F)(F)F)n2)nn1-c1ncccc1C(F)(F)F` [Example 251], the pest or weed control at 100 g/ha in series [1] and in series [3] (setting [5]) was not below 80% each time. In series [2] (setting [4]), the chromatographic logP came out at 3.04.
`O=C(NCC1CC1)c1cc(Cl)cc(Cl)c1NC(=O)c1cc(Cn2nnc(C(F)(F)C(F)(F)F)n2)nn1-c1ncccc1Cl` [Example 156]: the pest or weed control at 100 g/ha in series [1] and in series [3] (in Zea mays) was not below 80% each time. Moreover, the chromatographic logP in series [2] (log P) was 3.88.
As for `Cc1cc(C#N)cc(C(=O)NC(C)(C)C)c1NC(=O)c1cc(Cn2nnc(C(F)(F)F)n2)nn1-c1ccc(Cl)cc1` [Example 527], the pest or weed control at 100 g/ha in series [1] and in series [3] (setting [5]) was not below 80% in each case. For the same molecule, the chromatographic logP in series [2] (setting [7]) amounted to 4.16.
Regarding `O=C(NCC1CC1)c1cc(Cl)cc(Cl)c1NC(=O)c1cc(Cn2nnc(C(F)(C(F)(F)F)C(F)(F)F)n2)nn1-c1ncccc1Cl` [Example 392], the pest or weed control at 100 g/ha in series [1] and in series [3] (setting [5]) was not below 80% in each case. In addition, the chromatographic logP in series [2] (setting [4]) is 4.17.
With `Cc1cc(Cl)cc(C(=O)NC(C)C2CC2)c1NC(=O)c1cc(Cn2nnnc2C(F)(F)C(F)(F)F)nn1-c1ncccc1Cl` (stereo not drawn) [Example 199], the pest or weed control at 100 g/ha in series [1] and in series [3] (in Zea mays) was not below 80% each time. The same molecule came in with a chromatographic logP in series [2] (log P) of 3.88.
For the molecule `Cc1cc(C)c(NC(=O)c2cc(Cn3nnc(C(F)(F)F)n3)nn2-c2ncccc2Cl)c(C(=O)NC2CCC2)c1` [Example 84], the pest or weed control at 100 g/ha in series [1] and in series [3] (in Zea mays) was not below 80% throughout. In series [2] (log P), this molecule showed a chromatographic logP of 3.42.
Regarding `Cc1cc(C#N)cc(C(=O)NCC(C)C)c1NC(=O)c1cc(Cn2nnc(C(F)(F)F)n2)nn1-c1ncccc1Cl` [Example 38], the pest or weed control at 100 g/ha in series [1] and in series [3] (in Zea mays) was not below 80% in each case. In series [2] (log P), this molecule came in with a chromatographic logP of 3.37.
As to `Cc1cc(C#N)cc(C(=O)NC2CCC2)c1NC(=O)c1cc(Cn2nnc(C(F)(F)C(F)(F)F)n2)nn1-c1ncccc1Cl` [Example 139], the pest or weed control at 100 g/ha in series [1] and in series [3] (in Zea mays) was not below 80% in each case. For the same molecule, the chromatographic logP in series [2] (log P) turned out to be 3.61.
Take `CC(NC(=O)c1cc(Cl)cc(Cl)c1NC(=O)c1cc(Cn2nnc(C(F)(F)F)n2)nn1-c1ncccc1Cl)C1CC1` (stereo not drawn) [Example 56]: the pest or weed control at 100 g/ha in series [1] and in series [3] (in Zea mays) was not below 80% throughout. Moreover, the chromatographic logP in series [2] (log P) came to 3.71.
Turning to `Cc1cc(C)c(NC(=O)c2cc(Cn3nnc(C(F)(F)F)n3)nn2-c2ncccc2Cl)c(C(=O)NCC#N)c1` [Example 85], the pest or weed control at 100 g/ha in series [1] and in series [3] (in Zea mays) was not below 80% each time. Further, in series [2] (log P), the chromatographic logP was found to be 2.83.
As for `CCNC(=O)c1cc(Cl)cc(C)c1NC(=O)c1cc(Cn2nnc(C(F)F)n2)nn1-c1ncccc1Cl` [Example 257], the pest or weed control at 100 g/ha in series [1] and in series [3] (in Zea mays) was not below 80% throughout. Also, the chromatographic logP in series [2] (log P) turned out to be 2.69.
Take `Cc1cc(C#N)cc(C(=O)NC(C)(C)C)c1NC(=O)c1cc(Cn2nnc(C(F)(F)F)n2)nn1-c1ccccc1Br` [Example 347]: the pest or weed control at 100 g/ha in series [1] and in series [3] (setting [5]) was not below 80% in each case. The chromatographic logP in series [2] (setting [4]) was 3.95.
